Measured values as given in patent publication US20210115494A1, “Improved method for measurement of microbial biomass” (Mycometer A/S, priority 2018, published 2021).

Legend:
[1] = tested on: NAHA activity from Trichoderma harzianum; experiment: NAHA activity assay, Trichoderma harzianum; assay type: biochemical
Experimental: (§1) In order to determine NAHA activity in different samples, the technology in WO 98/033934 was employed: A sample containing a dried or freeze dried organism is added to a buffer solution containing 4-Methylumbelliferyl N-acetyl-β-D-glucosaminide in a concentration of 20 μM. The reaction-time is varied depending on the ambient temperature and according to a reaction-time/temperature data sheet previously developed for fungal NAHA activity at various temperatures, and is 30 minutes at 23° C. The resulting fluorescence formed during the reaction time is monitored in a calibrated fluorometer.
(§2) Experiments analogous to those in example 1 were carried out, but instead of using non-specific inhibitors, the effect of different concentrations of DNJNAc on the NAHA activity in various biomass containing samples was investigated.

[2] = tested on: NAHA activity from Chaetomium globosum; experiment: NAHA activity assay, Chaetomium globosum; assay type: biochemical
Experimental: as §1, §2

[3] = tested on: NAHA activity from Cladosporium sphaerospermum; experiment: NAHA activity assay, Cladosporium sphaerospermum; assay type: biochemical; details: Chladosporium sphaerosperm
Experimental: as §1
(§3) Experiments were conducted where varying concentrations of AgNO3 was added to an analysis substrate. Furthermore, the experiments where performed on dried or freeze dried materials where both intact and fragmented cells are to be expected to be present.
as §2

[4] = tested on: NAHA activity from Fusarium culmorum; experiment: NAHA activity assay, Fusarium culmorum; assay type: biochemical
Experimental: as §1, §3, §2

[5] = tested on: NAHA activity from Rhizopus stolonifer; experiment: NAHA activity assay, Rhizopus stolonifer; assay type: biochemical
Experimental: as §1, §2

[6] = tested on: NAHA activity from Human skin cells; experiment: NAHA activity assay, human skin cells; assay type: biochemical
Experimental: as §1, §3, §2

[7] = tested on: NAHA activity from Ambrosia psilostachya (Rag weed pollen); experiment: NAHA activity assay, rag weed pollen; assay type: biochemical
Experimental: as §1, §3, §2

fungal NAHA activity = experiment: NAHA activity assay, fungal sources overall; assay type: biochemical, fungi
Experimental: as §1, §3, §2
The experiments were performed with whole cell/organism cultures rather than purified enzyme, which is normally used in experiments on specific inhibition. It is plausible, though, that the surprising non-specific inhibition effect observed for Ag^+ and Hg^+ could be due to the inhibitors being delayed in physically contacting the NAHA enzyme in the fungi when compared to other types of biomass.

[8] = tested on: NAHA activity from Penicillium commune; experiment: NAHA activity assay, Penicillium commune; assay type: biochemical
Experimental: as §1, §2

[9] = tested on: NAHA activity from Grass pollen; experiment: NAHA activity assay, grass pollen; assay type: biochemical; details: Grass pollen
Experimental: as §1, §3, §2

[10] = tested on: NAHA activity from Aspergillus versicolor; experiment: NAHA activity assay, Aspergillus versicolor; assay type: biochemical
Experimental: as §1, §2

[11] = tested on: NAHA activity from Cat dander; experiment: NAHA activity assay, cat dander; assay type: biochemical
Experimental: as §1, §3, §2

[12] = tested on: NAHA activity from Aspergillus fumigatus freeze dried; experiment: NAHA activity assay, Aspergillus fumigatus freeze dried; assay type: biochemical; details: Aspergillus fumigatus (Freeze dried)
Experimental: as §1, §3, §2

[13] = tested on: NAHA activity from Aureobasidium pullulans; experiment: NAHA activity assay, Aureobasidium pullulans; assay type: biochemical
Experimental: as §1, §3, §2

non-fungal NAHA activity = experiment: NAHA activity assay, non-fungal sources overall; assay type: biochemical
Experimental: as §1, §3, §2

[14] = tested on: NAHA activity from Graham-flour; experiment: NAHA activity assay (4-methylumbelliferyl N-acetyl-β-D-glucosaminide, fluorescence), Graham-flour; assay type: biochemical; details: Graham Hour
Experimental: as §1, §3, §2

[15] = tested on: NAHA activity from Dermatophagoides pteronyssinus (Dust mite); experiment: NAHA activity assay, dust mite; assay type: biochemical; details: Dermatophagoides pteronyssinus (House dust mite)
Experimental: as §1, §3, §2

[16] = tested on: NAHA activity from Lepidoglyphus destructor (Storage mite); experiment: NAHA activity assay, storage mite; assay type: biochemical; details: Lepidoglyphus destructor (Storage mite)
Experimental: as §1, §3, §2

[17] = tested on: NAHA activity from Penicillium crysogenum; experiment: NAHA activity assay, Penicillium crysogenum; assay type: biochemical; details: Penicillium chrysogenum
Experimental: as §1, §3, §2

[18] = tested on: NAHA activity from Mugworth pollen; experiment: NAHA activity assay, mugworth pollen; assay type: biochemical
Experimental: as §1, §3, §2

[19] = tested on: NAHA activity from Mucor hiemalis; experiment: NAHA activity assay, Mucor hiemalis; assay type: biochemical
Experimental: as §1, §3, §2

Structure (SMILES): CC(=O)N[C@H]1CN[C@H](CO)[C@@H](O)[C@@H]1O [DNJNAc, 2-Acetamido-1,2-dideoxynojirimycin]
- NAHA activity, 0 μM DNJNAc = 100% ([1]; DNJNAc 24.5 μM): 120%
- NAHA activity, 0 μM DNJNAc = 100% ([1]; DNJNAc 49 μM): 93%
- NAHA activity, 0 μM DNJNAc = 100% ([1]; DNJNAc 98 μM): 92%
- NAHA activity, 0 μM DNJNAc = 100% ([1]; DNJNAc 196 μM): 83%
- NAHA activity, 0 μM DNJNAc = 100% ([2]; DNJNAc 24.5 μM): 88%
- NAHA activity, 0 μM DNJNAc = 100% ([2]; DNJNAc 49 μM): 91%
- NAHA activity, 0 μM DNJNAc = 100% ([2]; DNJNAc 98 μM): 92%
- NAHA activity, 0 μM DNJNAc = 100% ([2]; DNJNAc 196 μM): 81%
- NAHA activity, 0 μM DNJNAc = 100% ([3]; DNJNAc 24.5 μM): 43%
- NAHA activity, 0 μM DNJNAc = 100% ([3]; DNJNAc 49 μM): 32%
- NAHA activity, 0 μM DNJNAc = 100% ([3]; DNJNAc 98 μM): 49%
- NAHA activity, 0 μM DNJNAc = 100% ([3]; DNJNAc 196 μM): 21%
- NAHA activity, 0 μM DNJNAc = 100% ([4]; DNJNAc 24.5 μM): 85%
- NAHA activity, 0 μM DNJNAc = 100% ([4]; DNJNAc 49 μM): 82%
- NAHA activity, 0 μM DNJNAc = 100% ([4]; DNJNAc 98 μM): 98%
- NAHA activity, 0 μM DNJNAc = 100% ([4]; DNJNAc 196 μM): 95%
- NAHA activity, 0 μM DNJNAc = 100% ([5]; DNJNAc 24.5 μM): 46%
- NAHA activity, 0 μM DNJNAc = 100% ([5]; DNJNAc 49 μM): 32%
- NAHA activity, 0 μM DNJNAc = 100% ([5]; DNJNAc 98 μM): 23%
- NAHA activity, 0 μM DNJNAc = 100% ([5]; DNJNAc 196 μM): 18%
- NAHA activity, 0 μM DNJNAc = 100% ([6]; DNJNAc 24.5 μM): 3%
- NAHA activity, 0 μM DNJNAc = 100% ([6]; DNJNAc 49 μM): 1%
- NAHA activity, 0 μM DNJNAc = 100% ([6]; DNJNAc 98 μM): 1%
- NAHA activity, 0 μM DNJNAc = 100% ([6]; DNJNAc 196 μM): 1%
- NAHA activity, 0 μM DNJNAc = 100% ([7]; DNJNAc 24.5 μM): 8%
- NAHA activity, 0 μM DNJNAc = 100% ([7]; DNJNAc 49 μM): 6%
- NAHA activity, 0 μM DNJNAc = 100% ([7]; DNJNAc 98 μM): 5%
- NAHA activity, 0 μM DNJNAc = 100% ([7]; DNJNAc 196 μM): 4%
- fungal NAHA activity retained, average (fungal NAHA activity; 24.5 μM in the assay substrate): 83%
- fungal NAHA activity retained, average (fungal NAHA activity; 196 μM): 60%
- NAHA activity, 0 μM DNJNAc = 100% ([8]; DNJNAc 24.5 μM): 76%
- NAHA activity, 0 μM DNJNAc = 100% ([8]; DNJNAc 49 μM): 62%
- NAHA activity, 0 μM DNJNAc = 100% ([8]; DNJNAc 98 μM): 45%
- NAHA activity, 0 μM DNJNAc = 100% ([8]; DNJNAc 196 μM): 22%
- NAHA activity, 0 μM DNJNAc = 100% ([9]; DNJNAc 24.5 μM): 41%
- NAHA activity, 0 μM DNJNAc = 100% ([9]; DNJNAc 49 μM): 37%
- NAHA activity, 0 μM DNJNAc = 100% ([9]; DNJNAc 98 μM): 30%
- NAHA activity, 0 μM DNJNAc = 100% ([9]; DNJNAc 196 μM): 20%
- NAHA activity, 0 μM DNJNAc = 100% ([10]; DNJNAc 24.5 μM): 92%
- NAHA activity, 0 μM DNJNAc = 100% ([10]; DNJNAc 49 μM): 79%
- NAHA activity, 0 μM DNJNAc = 100% ([10]; DNJNAc 98 μM): 71%
- NAHA activity, 0 μM DNJNAc = 100% ([10]; DNJNAc 196 μM): 63%
- NAHA activity, 0 μM DNJNAc = 100% ([11]; DNJNAc 24.5 μM): 7%
- NAHA activity, 0 μM DNJNAc = 100% ([11]; DNJNAc 49 μM): 5%
- NAHA activity, 0 μM DNJNAc = 100% ([11]; DNJNAc 98 μM): 3%
- NAHA activity, 0 μM DNJNAc = 100% ([11]; DNJNAc 196 μM): 2%
- NAHA activity, 0 μM DNJNAc = 100% ([12]; DNJNAc 24.5 μM): 114%
- NAHA activity, 0 μM DNJNAc = 100% ([12]; DNJNAc 49 μM): 105%
- NAHA activity, 0 μM DNJNAc = 100% ([12]; DNJNAc 98 μM): 104%
- NAHA activity, 0 μM DNJNAc = 100% ([12]; DNJNAc 196 μM): 96%
- NAHA activity, 0 μM DNJNAc = 100% ([13]; DNJNAc 24.5 μM): 56%
- NAHA activity, 0 μM DNJNAc = 100% ([13]; DNJNAc 49 μM): 67%
- NAHA activity, 0 μM DNJNAc = 100% ([13]; DNJNAc 98 μM): 50%
- NAHA activity, 0 μM DNJNAc = 100% ([13]; DNJNAc 196 μM): 27%
- non fungal activity retained, average (non-fungal NAHA activity; 24.5 μM in the assay substrate): 11%
- non-fungal NAHA activity retained, average of the control (non-fungal NAHA activity; 196 μM): 5%
- NAHA activity, 0 μM DNJNAc = 100% ([14]; DNJNAc 24.5 μM): 14%
- NAHA activity, 0 μM DNJNAc = 100% ([14]; DNJNAc 49 μM): 9%
- NAHA activity, 0 μM DNJNAc = 100% ([14]; DNJNAc 98 μM): 6%
- NAHA activity, 0 μM DNJNAc = 100% ([14]; DNJNAc 196 μM): 6%
- NAHA activity, 0 μM DNJNAc = 100% ([15]; DNJNAc 24.5 μM): 5%
- NAHA activity, 0 μM DNJNAc = 100% ([15]; DNJNAc 49 μM): 2%
- NAHA activity, 0 μM DNJNAc = 100% ([15]; DNJNAc 98 μM): 1%
- NAHA activity, 0 μM DNJNAc = 100% ([15]; DNJNAc 196 μM): 1%
- NAHA activity, 0 μM DNJNAc = 100% ([16]; DNJNAc 24.5 μM): 3%
- NAHA activity, 0 μM DNJNAc = 100% ([16]; DNJNAc 49 μM): 2%
- NAHA activity, 0 μM DNJNAc = 100% ([16]; DNJNAc 98 μM): 1%
- NAHA activity, 0 μM DNJNAc = 100% ([16]; DNJNAc 196 μM): 0%
- NAHA activity, 0 μM DNJNAc = 100% ([17]; DNJNAc 24.5 μM): 89%
- NAHA activity, 0 μM DNJNAc = 100% ([17]; DNJNAc 49 μM): 86%
- NAHA activity, 0 μM DNJNAc = 100% ([17]; DNJNAc 98 μM): 74%
- NAHA activity, 0 μM DNJNAc = 100% ([17]; DNJNAc 196 μM): 76%
- NAHA activity, 0 μM DNJNAc = 100% ([18]; DNJNAc 24.5 μM): 8%
- NAHA activity, 0 μM DNJNAc = 100% ([18]; DNJNAc 49 μM): 6%
- NAHA activity, 0 μM DNJNAc = 100% ([18]; DNJNAc 98 μM): 5%
- NAHA activity, 0 μM DNJNAc = 100% ([18]; DNJNAc 196 μM): 4%
- NAHA activity, 0 μM DNJNAc = 100% ([19]; DNJNAc 24.5 μM): 58%
- NAHA activity, 0 μM DNJNAc = 100% ([19]; DNJNAc 49 μM): 37%
- NAHA activity, 0 μM DNJNAc = 100% ([19]; DNJNAc 98 μM): 45%
- NAHA activity, 0 μM DNJNAc = 100% ([19]; DNJNAc 196 μM): 25%
